Experimental data taken from patent US10131652B2, “Pyrimidinyloxy benzene derivatives as herbicides” (E. I. DU PONT DE NEMOURS AND COMPANY, priority 2014, dated 2018).
Where two headings read alike, the source gives them in different places.

Columns and labels:
Format in all cases: in vivo
[1] = system: late watergrass (Echinochloa oryzicola); assay: Test G flooded paddy rice/weed plant response; details: Flood, 21 days, scale 0 to 100 (0 no effect, 100 complete control)
Source text: (§1) Three plastic pots (ca. 16-cm diameter) per rate were partially filled with sterilized Tama silt loam soil comprising a 35:50:15 ratio of sand, silt and clay and 2.6% organic matter. Separate plantings for each of the three pots were as follows. Seeds from the U.S. of monochoria (Monochoria vaginalis), small-flower umbrella sedge (Cyperus difformis), hardstem bulrush (Scirpus juncoides), and redstem (purple redstem, Ammannia coccinea), were planted into one 16-cm pot for each rate. Seeds from the U.S. of rice flatsedge (Cyperus iria), bearded sprangletop (Leptochloa fascicularis), one stand of 9 or 10 water seeded rice seedlings (Indica rice, Oryza sativa), and two stands of 3 or 4 transplanted rice seedlings (Oryza sativa cv. ‘Japonica—M202’) were planted into one 16-cm pot for each rate. Seeds from the U.S. of bamyardgrass (Echinochloa crus-galli), and late watergrass (Echinochloa oryzicola) were planted into one 16-cm pot for each rate. Plantings were sequential so that crop and weed species were at the 2.0 to 2.5-leaf stage at time of treatment.
(§2) Potted plants were grown in a greenhouse with day/night temperature settings of 30/27° C., and supplemental balanced lighting was provided to maintain a 16-hour photoperiod. Test pots were maintained in the greenhouse until test completion.
(§3) At time of treatment, test pots were flooded to 3 cm above the soil surface, treated by application of test compounds directly to the paddy water, and then maintained at that water depth for the duration of the test. Effects of treatments on rice and weeds were visually evaluated by comparison to untreated controls after 21 days. Plant response ratings, summarized in Table G, are based on a scale of 0 to 100 where 0 is no effect and 100 is complete control. A dash (-) response means no test result.

[2] = system: barnyardgrass (Echinochloa crus-galli); assay: Test G flooded paddy rice/weed plant response; details: Flood, 21 days, scale 0 to 100 (0 no effect, 100 complete control)
Source text: as §1, §2, §3

[3] = system: redstem (purple redstem, Ammannia coccinea); assay: Test G flooded paddy rice/weed plant response; details: Flood, 21 days, scale 0 to 100 (0 no effect, 100 complete control)
Source text: as §1, §2, §3

[4] = system: rice flatsedge (Cyperus iria); assay: Test G flooded paddy rice/weed plant response; details: Flood, 21 days, scale 0 to 100 (0 no effect, 100 complete control)
Source text: as §1, §2, §3

[5] = system: transplanted rice seedlings (Oryza sativa cv. ‘Japonica—M202’); assay: Test G flooded paddy rice/weed plant response; details: Flood, 21 days, scale 0 to 100 (0 no effect, 100 complete control)
Source text: as §1, §2, §3

[6] = system: small-flower umbrella sedge (Cyperus difformis); assay: Test G flooded paddy rice/weed plant response; details: Flood, 21 days, scale 0 to 100 (0 no effect, 100 complete control)
Source text: as §1, §2, §3

[7] = system: bearded sprangletop (Leptochloa fascicularis); assay: Test G flooded paddy rice/weed plant response; details: Flood, 21 days, scale 0 to 100 (0 no effect, 100 complete control)
Source text: as §1, §2, §3

[8] = system: green foxtail (Setaria viridis); assay: Test E pre-/postemergence plant response; details: scale 0 to 100, read-out: Plant response rating, Foxtail, Green; for pest or weed control at 16 g/ha: 16 g ai/ha; for pest or weed control at 31 g/ha: 31 g ai/ha; for pest or weed control at 62 g/ha: 62 g ai/ha; for pest or weed control at 125 g/ha: 125 g ai/ha
Outline: (§4)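 Visual scores on a 0–100 scale (100 = complete control) were assigned against untreated controls 7–21 days after treatment in a controlled environment. Compounds, formulated with solvent plus surfactant, were applied to pre-emergence silt-loam sowings or to 1- to 4-leaf plants (2–18 cm) in potting medium.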

[9] = system: chickweed (common chickweed, Stellaria media); assay: Test E pre-/postemergence plant response; details: scale 0 to 100, read-out: Plant response rating, Chickweed; for pest or weed control at 16 g/ha: 16 g ai/ha; for pest or weed control at 31 g/ha: 31 g ai/ha; for pest or weed control at 62 g/ha: 62 g ai/ha; for pest or weed control at 125 g/ha: 125 g ai/ha
Outline: as §4

[10] = system: field violet (Viola arvensis); assay: Test E pre-/postemergence plant response; details: scale 0 to 100, read-out: Plant response rating, Field Violet; for pest or weed control at 16 g/ha: 16 g ai/ha; for pest or weed control at 31 g/ha: 31 g ai/ha; for pest or weed control at 62 g/ha: 62 g ai/ha; for pest or weed control at 125 g/ha: 125 g ai/ha
Outline: as §4

[11] = system: galium (catchweed bedstraw, Galium aparine); assay: Test E pre-/postemergence plant response; details: scale 0 to 100, read-out: Plant response rating, Galium; for pest or weed control at 16 g/ha: 16 g ai/ha; for pest or weed control at 31 g/ha: 31 g ai/ha; for pest or weed control at 62 g/ha: 62 g ai/ha; for pest or weed control at 125 g/ha: 125 g ai/ha
Outline: as §4

For `Fc1cccc(Oc2ncc(Cl)cn2)c1-c1cc(C(F)F)on1` [Compound 55, 5-chloro-2-[2-[5-(difluoromethyl)-3-isoxazolyl]-3-fluorophenoxy]pyrimidine], the “Plant response rating, Watergrass, Late” value ([1]; 32 g ai/ha) was 0, the “Plant response rating, Watergrass, Late” value ([1]; 64 g ai/ha) was 0 and the “Plant response rating, Watergrass, Late” value ([1]; 125 g ai/ha) was 75. For the same molecule, the “Plant response rating, Watergrass, Late” value ([1]; 250 g ai/ha) was 100, the “Plant response rating, Barnyardgrass” value ([2]; 32 g ai/ha) was 0 and the “Plant response rating, Barnyardgrass” value ([2]; 64 g ai/ha) was 75. For the same molecule, the “Plant response rating, Barnyardgrass” value ([2]; 125 g ai/ha) was 100, the “Plant response rating, Barnyardgrass” value ([2]; 250 g ai/ha) was 100 and the “Plant response rating, Redstem” value ([3]; 32 g ai/ha) was 85. For the same molecule, the “Plant response rating, Redstem” value ([3]; 64 g ai/ha) was 95, the “Plant response rating, Redstem” value ([3]; 125 g ai/ha) was 100 and the “Plant response rating, Redstem” value ([3]; 250 g ai/ha) was 100. The “Plant response rating, Flatsedge, Rice” value ([4]; 32 g ai/ha) was 85, the “Plant response rating, Flatsedge, Rice” value ([4]; 64 g ai/ha) was 100 and the “Plant response rating, Flatsedge, Rice” value ([4]; 125 g ai/ha) was 100. The “Plant response rating, Flatsedge, Rice” value ([4]; 250 g ai/ha) was 100, the “Plant response rating, Rice, Transplanted” value (“Plant response rating, Rice” below) ([5]; 32 g ai/ha) was 20 and the “Plant response rating, Rice” value ([5]; 64 g ai/ha) was 60. For the same molecule, the “Plant response rating, Rice” value ([5]; 125 g ai/ha) was 80, the “Plant response rating, Rice” value ([5]; 250 g ai/ha) was 100 and the “Plant response rating, Sedge, Umbrella” value ([6]; 32 g ai/ha) was 98. For the same molecule, the “Plant response rating, Sedge, Umbrella” value ([6]; 64 g ai/ha) was 100, the “Plant response rating, Sedge, Umbrella” value ([6]; 125 g ai/ha) was 100 and the “Plant response rating, Sedge, Umbrella” value ([6]; 250 g ai/ha) was 100. For the same molecule, the “Plant response rating, Sprangletop, Brdd.” value ([7]; 32 g ai/ha) was 45, the “Plant response rating, Sprangletop, Brdd.” value ([7]; 64 g ai/ha) was 80 and the “Plant response rating, Sprangletop, Brdd.” value ([7]; 125 g ai/ha) was 100. For the same molecule, the “Plant response rating, Sprangletop, Brdd.” value ([7]; 250 g ai/ha) was 100, the pest or weed control at 16 g/ha ([8]; post-emergence, Postemergence) was 30% and the pest or weed control at 31 g/ha ([8]; post-emergence, Postemergence) was 45%. The pest or weed control at 62 g/ha ([8]; post-emergence, Postemergence) was 50%, the pest or weed control at 125 g/ha ([8]; post-emergence, Postemergence) was 60% and the pest or weed control at 16 g/ha ([8]; pre-emergence, Preemergence) was 10%. It also gave a pest or weed control at 31 g/ha ([8]; pre-emergence, Preemergence) of 25%, a pest or weed control at 62 g/ha ([8]; pre-emergence, Preemergence) of 100% and a pest or weed control at 125 g/ha ([8]; pre-emergence, Preemergence) of 100%. The pest or weed control at 16 g/ha ([9]; post-emergence, Postemergence) was 55%, the pest or weed control at 31 g/ha ([9]; post-emergence, Postemergence) was 55% and the pest or weed control at 62 g/ha ([9]; post-emergence, Postemergence) was 70%. It also gave a pest or weed control at 125 g/ha ([9]; post-emergence, Postemergence) of 70%, a pest or weed control at 16 g/ha ([9]; pre-emergence, Preemergence) of 65% and a pest or weed control at 31 g/ha ([9]; pre-emergence, Preemergence) of 100%. It also gave a pest or weed control at 62 g/ha ([9]; pre-emergence, Preemergence) of 100%, a pest or weed control at 125 g/ha ([9]; pre-emergence, Preemergence) of 100% and a pest or weed control at 16 g/ha ([10]; post-emergence, Postemergence) of 65%. It also gave a pest or weed control at 31 g/ha ([10]; post-emergence, Postemergence) of 70%, a pest or weed control at 62 g/ha ([10]; post-emergence, Postemergence) of 85% and a pest or weed control at 125 g/ha ([10]; post-emergence, Postemergence) of 90%. For the same molecule, the pest or weed control at 16 g/ha ([10]; pre-emergence, Preemergence) was 70%, the pest or weed control at 31 g/ha ([10]; pre-emergence, Preemergence) was 80% and the pest or weed control at 62 g/ha ([10]; pre-emergence, Preemergence) was 100%. It also gave a pest or weed control at 125 g/ha ([10]; pre-emergence, Preemergence) of 100%, a pest or weed control at 16 g/ha ([11]; post-emergence, Postemergence) of 70% and a pest or weed control at 31 g/ha ([11]; post-emergence, Postemergence) of 85%. It also gave a pest or weed control at 62 g/ha ([11]; post-emergence, Postemergence) of 80%, a pest or weed control at 125 g/ha ([11]; post-emergence, Postemergence) of 85% and a pest or weed control at 16 g/ha ([11]; pre-emergence, Preemergence) of 10%. It also gave a pest or weed control at 31 g/ha ([11]; pre-emergence, Preemergence) of 100%, a pest or weed control at 62 g/ha ([11]; pre-emergence, Preemergence) of 70% and a pest or weed control at 125 g/ha ([11]; pre-emergence, Preemergence) of 100%.
